The text below walks through data of PubChem BioAssay (NCI).

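Growth conditions: 96-well plates. Treatment: test compound, 48 hours, 5 concentrations. Analysis: linear interpolation between bracketing concentrations; unreached endpoints set to highest concentration. GI50 is the concentration that inhibits growth by half. TGI denotes the concentration required for complete inhibition of growth.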

Test systems include MDA-MB-231 breast; OVCAR-5 ovarian; HL-60(TB) leukemia; OVCAR-8 ovarian; SF-295 CNS; HCC-2998 colon; OVCAR-4 ovarian; T-47D breast; NCI-H460 lung; HCT-116 colon.
Holding throughout (test): DTP human tumour cell line panel, 48 h

Turning to `NC(=S)N/N=C/c1ccc(OC(=O)COc2ccc(Cl)cc2)cn1`, the GI50 in the assay with MDA-MB-231 breast is 6.61 µM; with OVCAR-5 ovarian it was 41.6 µM; with HL-60(TB) leukemia, 0.954 µM; in the assay on OVCAR-8 ovarian, 3.63 µM; in the assay on SF-295 CNS, 20.8 µM; in the assay on HCC-2998 colon it was 8.46 µM. The GI50 in the assay with OVCAR-4 ovarian is 5.87 µM; with T-47D breast, 8.62 µM; in the assay on NCI-H460 lung, 3.91 µM; in the assay on HCT-116 colon, 4.93 µM. The TGI is greater than 100 µM with MDA-MB-231 breast; greater than 100 µM in the assay on OVCAR-5 ovarian; 20.8 µM with HL-60(TB) leukemia; greater than 100 µM in the assay with OVCAR-8 ovarian; greater than 100 µM in the assay with SF-295 CNS; greater than 100 µM in the assay with HCC-2998 colon. For the same compound, the concentration for total growth inhibition (TGI) was greater than 100 µM in the assay with OVCAR-4 ovarian, greater than 100 µM in the assay on T-47D breast, 18.9 µM in the assay on NCI-H460 lung and greater than 100 µM in the assay on HCT-116 colon.

`COc1ccc(C(=O)c2cc(C)c(OC)c(C)c2)c(OC)c1N(C(=O)C(Cl)Cl)C(=O)C(Cl)Cl`: the 50% growth inhibitory concentration (GI50) in the assay on MDA-MB-231 breast was 0.107 µM; in the assay with OVCAR-5 ovarian, 0.111 µM; with HL-60(TB) leukemia, 0.0306 µM; in the assay on OVCAR-8 ovarian, 0.0558 µM; in the assay with SF-295 CNS, 0.0323 µM; in the assay on HCC-2998 colon it was 0.0799 µM. Also, the GI50 with OVCAR-4 ovarian was 1.59 µM; in the assay on NCI-H460 lung, 0.0381 µM; in the assay with HCT-116 colon it was 0.0772 µM. For the same compound, the TGI in the assay with MDA-MB-231 breast was greater than 100 µM; with OVCAR-5 ovarian, greater than 100 µM; in the assay with HL-60(TB) leukemia, 0.0956 µM; in the assay on OVCAR-8 ovarian, greater than 100 µM; in the assay on SF-295 CNS, greater than 100 µM; in the assay on HCC-2998 colon, greater than 41.2 µM. Also, the TGI in the assay on OVCAR-4 ovarian was greater than 100 µM; in the assay on NCI-H460 lung it was 15.7 µM; in the assay with HCT-116 colon it was greater than 58.8 µM.

For the compound `Clc1nc(Cl)c2ncn(Cc3cccc(COc4cccc(OCc5cccc(Cn6cnc7c(Cl)nc(Cl)nc76)c5)c4)c3)c2n1`, the GI50 with MDA-MB-231 breast was 27.2 µM; in the assay with OVCAR-5 ovarian it was greater than 100 µM; with HL-60(TB) leukemia it was 4.61 µM; in the assay on OVCAR-8 ovarian, 24.7 µM; with SF-295 CNS, greater than 100 µM; in the assay with HCC-2998 colon, 17.9 µM. For the same compound, the GI50 with OVCAR-4 ovarian was 32 µM; in the assay on T-47D breast, 25.8 µM; in the assay on NCI-H460 lung it was greater than 100 µM. The TGI in the assay on MDA-MB-231 breast is greater than 100 µM; in the assay with OVCAR-5 ovarian, greater than 100 µM; in the assay with HL-60(TB) leukemia it was 31.3 µM; in the assay with OVCAR-8 ovarian it was greater than 100 µM; with SF-295 CNS it was greater than 100 µM; in the assay with HCC-2998 colon, 33.2 µM. Besides, the TGI in the assay with OVCAR-4 ovarian, in the assay with T-47D breast and in the assay on NCI-H460 lung was greater than 100 µM throughout.

In the case of `O=C(O)CC1OCC=C2CN3CCC45c6ccccc6NC4C1C2CC35` (configuration not stated), the total growth inhibition concentration (TGI) in the assay with MDA-MB-231 breast, with OVCAR-5 ovarian, with HL-60(TB) leukemia, in the assay on OVCAR-8 ovarian, in the assay on SF-295 CNS and with OVCAR-4 ovarian was greater than 100 µM each time. The TGI in the assay on T-47D breast, in the assay with NCI-H460 lung and with HCT-116 colon was greater than 100 µM throughout.

For `NC(CC(=O)OCc1ccccc1)C(=O)OCc1ccccc1` (configuration not stated), the TGI is greater than 100 µM in the assay on OVCAR-5 ovarian; greater than 100 µM in the assay with OVCAR-8 ovarian; greater than 100 µM in the assay on SF-295 CNS; 89.1 µM in the assay on HCC-2998 colon; greater than 100 µM with T-47D breast; greater than 100 µM with NCI-H460 lung. In the assay with HCT-116 colon, this compound showed a concentration for total growth inhibition (TGI) greater than 100 µM.

As for `CC12CCCC(O)C1CCC1=CC3(CCC12)SCCS3` (configuration not stated), the TGI with MDA-MB-231 breast, with OVCAR-8 ovarian, with SF-295 CNS, with HCC-2998 colon, in the assay on OVCAR-4 ovarian and in the assay on T-47D breast was greater than 10 µM in each case.

`CCN1C(=O)CNc2ncc(-c3ccc(-c4ncn[nH]4)nc3C)nc21`: the GI50 with MDA-MB-231 breast is 0.127 µM; with OVCAR-5 ovarian it was 0.169 µM; with OVCAR-8 ovarian it was 0.385 µM; in the assay with SF-295 CNS it was 0.105 µM; with HCC-2998 colon it was 0.338 µM; in the assay with OVCAR-4 ovarian, 0.103 µM. In addition, the GI50 in the assay on T-47D breast is 0.0169 µM; in the assay on NCI-H460 lung it was 0.118 µM; in the assay with HCT-116 colon, 0.277 µM. Moreover, the TGI amounted to 3.33 µM with MDA-MB-231 breast; 8.96 µM with OVCAR-5 ovarian; 5.23 µM in the assay with OVCAR-8 ovarian; 0.679 µM in the assay on SF-295 CNS; 12.4 µM with HCC-2998 colon; 1.13 µM in the assay with OVCAR-4 ovarian. Moreover, the values for the total growth inhibition concentration (TGI) in the assay with T-47D breast, in the assay with NCI-H460 lung and with HCT-116 colon were 0.185 µM, 11.3 µM and 4.62 µM, respectively.

As for `CN(C)c1ccc(N)cc1`, the GI50 is 3.99 µM in the assay with MDA-MB-231 breast; 13.5 µM in the assay with OVCAR-5 ovarian; 3.24 µM in the assay with OVCAR-8 ovarian; 2.37 µM in the assay on SF-295 CNS; 4.44 µM in the assay with HCC-2998 colon; 1.74 µM with OVCAR-4 ovarian. Further, the GI50 with T-47D breast is 3.25 µM; in the assay with NCI-H460 lung it was 3.09 µM; in the assay on HCT-116 colon, 2.67 µM. Further, the total growth inhibition concentration (TGI) with MDA-MB-231 breast was found to be 55.2 µM; in the assay with OVCAR-5 ovarian, 42.6 µM; in the assay with OVCAR-8 ovarian it was 19.7 µM; in the assay on SF-295 CNS, 6.48 µM; in the assay on HCC-2998 colon it was 21.2 µM; in the assay on OVCAR-4 ovarian, 3.45 µM. The TGI in the assay on T-47D breast was determined as 9.7 µM; with NCI-H460 lung, 13 µM; in the assay on HCT-116 colon it was 8.44 µM.

In the case of `CCN(CC)CCCC(C)Nc1c(C)cnc2cc(Cl)c(C)cc12` (configuration not stated), the GI50 with MDA-MB-231 breast was 2.71 µM; in the assay on OVCAR-5 ovarian it was 5.56 µM; with HL-60(TB) leukemia, 3.19 µM; in the assay with OVCAR-8 ovarian, 11.4 µM; with SF-295 CNS it was 11.3 µM; with OVCAR-4 ovarian, 10.2 µM. For the same compound, the GI50 is 22.9 µM in the assay with T-47D breast, 14.1 µM in the assay with NCI-H460 lung and 2.56 µM in the assay with HCT-116 colon. Also, the total growth inhibition concentration (TGI) with MDA-MB-231 breast was determined as 10.4 µM; with OVCAR-5 ovarian it was 18 µM; with HL-60(TB) leukemia, 21.2 µM; with OVCAR-8 ovarian it was 43.5 µM; in the assay on SF-295 CNS, 28.1 µM; with OVCAR-4 ovarian it was 35.7 µM. Also, the concentration for total growth inhibition (TGI) in the assay with T-47D breast was greater than 61.7 µM; in the assay on NCI-H460 lung, 32.3 µM; in the assay with HCT-116 colon it was 13.6 µM.
